{
  "source": "patent US20140011711A1",
  "about": "“MICROARRAY CELL CHIP” (Solidus Biosciences, Inc., priority 2010, published 2014)",
  "key": {"[1]": {"system": "Hep3B cell", "assay": "Toxicity test of drugs, Hep3B cell cultured in microtiter plate (2D monolayer in 96-wells)", "assay_type": "cell-based", "conditions": "read-out: IC50 (concentration of drug when 50% of cells shows the growth inhibition), Microtiter Plate (2D Hep3B cell monolayer in 96-wells), drug cultured for a day", "source_text": "The values shown in the above Table were obtained based on the results of culturing the drug for a day, dying it immediately after the culturing, and scanning it."}, "[2]": {"system": "Hep3B cell", "assay": "Toxicity test of drugs, Hep3B cell cultured in microarray cell chip (3D alginate culture on the chip)", "assay_type": "cell-based", "conditions": "read-out: IC50 (concentration of drug when 50% of cells shows the growth inhibition), Cell chip according to Invention (3D Hep3B cell culture on the chip); 3D Hep3B cell culture in alginate on the chip; drug cultured for a day; calcein AM / ethidium homodimer-1 staining", "method": "The mixture of the alginate-Hep3B cell line primarily combined the upper substrate 100 formed on the spacer with the lower substrate 200 having 800 nl of culture medium in the well 210 to gelate the alginate, thereby removing the extra barium chloride. The upper substrate 100 is separated after removing the extra barium chloride and again combines with the lower substrate 200 having 800 nl of new culture medium in the well 210, thereby culturing the Hep3B cell.\nAfter the culture ends, the Hep3B cell existing on the upper substrate 100 was dyed with the fluorescent material (calcein AM and ethidium homodimer-1)."}},
  "data": [
    {"smiles": "CCN(CC)CCCC(C)Nc1ccnc2cc(Cl)ccc12", "note": "(stereo not drawn) [Chliroquine, Chloroquine]", "values": [
      {"measurement": "IC50", "setting": "[1]", "result": 50, "unit": "µM"}
    ]},
    {"smiles": "O=C(O)Cc1ccccc1Nc1c(Cl)cccc1Cl", "note": "[Diclofenac]", "values": [
      {"measurement": "IC50", "setting": "[2]", "result": 375, "unit": "µM"},
      {"measurement": "IC50", "setting": "[1]", "result": 230, "unit": "µM"}
    ]},
    {"smiles": "CCN(CC)C(=O)/C(C#N)=C/c1cc(O)c(O)c([N+](=O)[O-])c1", "note": "[Entacapone]", "values": [
      {"measurement": "IC50", "setting": "[2]", "result": 381, "unit": "µM"},
      {"measurement": "IC50", "setting": "[1]", "result": 850, "unit": "µM"}
    ]},
    {"smiles": "CO[C@@]12[C@H](COC(N)=O)C3=C(C(=O)C(C)=C(N)C3=O)N1C[C@@H]1N[C@@H]12", "note": "[Mitomycin C]", "values": [
      {"measurement": "IC50", "setting": "[2]", "result": 124, "unit": "µM"},
      {"measurement": "IC50", "setting": "[1]", "result": 40, "unit": "µM"}
    ]},
    {"smiles": "Cc1ccc(C(=O)c2cc(O)c(O)c([N+](=O)[O-])c2)cc1", "note": "[Tolcapone]", "values": [
      {"measurement": "IC50", "setting": "[2]", "result": 171, "unit": "µM"},
      {"measurement": "IC50", "setting": "[1]", "result": 50, "unit": "µM"}
    ]}
  ]
}
